In one data set the test system is HGF. It counts as cell-based. Conditions: human, 24 h. How it is done: (§1) The cell lines HGF and hFOB 1.19 were cultured for cytocompatibility assessments. HGF cells were cultured in fibroblast basal medium supplemented with the manufacturer's recommended growth kit (2% fetal bovine serum, 50 μg/mL ascorbic acid, 5 μg/mL rh insulin, […] hydrocortisone hemisuccinate, 5 ng/mL rh FGF b, and 7.5 mM L-glutamine) and penicillin-streptomycin (10 units/mL and 10 μg/mL, respectively). hFOB 1.19 cells were maintained in a 1:1 mixture of Ham's F12 Medium and Dulbecco's Modified Eagle's Medium supplemented with L-glutamine (2.5 mM), fetal bovine serum (10%) and G418 (0.3 mg/mL). Both cell types were incubated at 37° C. in a 5% CO2 humified atmosphere. Medium was replaced every 48 h and both cell lines were subcultured once monolayers were 80% confluent. Cells were detached from the flask surface via enzymatic treatment with 0.05% trypsin and 5 mM EDTA for 5 min, with isolation of cell pellets via centrifugation at 200 RCF for 5 min.
(§2) The cellular cytotoxicity of GSNO against HGF and hFOB 1.19 cells was tested over 24 h direct contact experiments. […] A separate set of wells containing only media and the dye (n=5) were also prepared to account for background readings. The absorbance of each well was measured at 450 nm, adjusted against the average absorbance reading of the wells with only media. […]

Data set [1] in a line: GSNO/NO loading by chemiluminescence NO analyzer (Cu1+ depletion). It counts as physicochemical. Conditions: hydrogel precursor sol, aqueous with cosolvent or surfactant or cyclodextrin; read-out: GSNO sol concentration after which solubility is incomplete.
Another data set deals with hFOB 1.19. The experiment in a line: Cellular cytotoxicity of GSNO and precursor sol materials (CCK-8). It is filed as cell-based, human. Conditions: hFOB 1.19 cells, direct contact exposure. How it is done: as §1, §2

The source of these data is US20250090573A1, “COMPOSITIONS FOR DELIVERING NITRIC OXIDE AND FLUORIDE AND METHODS FOR MAKING AND USING THE SAME” (University of Georgia Research Foundation, Inc., priority 2022, published 2025).

`N[C@@H](CCC(=O)N[C@@H](CSN=O)C(=O)NCC(=O)O)C(=O)O` [GSNO, S-Nitrosoglutathione]: the “GSNO treatment eliciting cytotoxic response” value in the data set on HGF is “greater than 100 μg/mL”; with hFOB 1.19, roughly 400 µg/mL. The solubility in data set [1] was no more than 30 mg/mL.
